Assay results as given in patent US8829007B2 (priority 2009, dated 2014).

These compounds were tested on influenza A virus (A/PR/8/34) (assay: microbe, parasite or virus in culture). Conditions: Influenza A virus, PR/8, MDCK, MDCK cells infected with A/PR/8/34, cell protection (CPE); read-out: IC50 (mean all).
Format: cell-based

SMILES | IC50
O=C(O)c1nccnc1C(=O)N1CCC[C@H](CNc2nc(-c3c[nH]c4ncc(Cl)cc34)ncc2F)C1 [Compound 82, (R)-3-(3-((2-(5-chloro-1H-pyrrolo[2,3-b]pyridin-3-yl)-5-fluoropyrimidin-4-ylamino)methyl)piperidine-1-carbonyl)pyrazine-2-carboxylic acid] | > 20 µM
CCOC(=O)CCNC(=O)N1CCC[C@H](CNc2nc(-c3c[nH]c4ncc(Cl)cc34)ncc2F)C1 [Compound 118, (R)-ethyl 3-(3-((2-(5-chloro-1H-pyrrolo[2,3-b]pyridin-3-yl)-5-fluoropyrimidin-4-ylamino)methyl)piperidine-1-carboxamido)propanoate] | 5 to 20 µM
N[C@@H]1CCCC[C@H]1Nc1nc(-c2c[nH]c3ncc(Cl)cc23)ncc1Cl [Compound 115, (1R,2R)—N1-(5-chloro-2-(5-chloro-1H-pyrrolo[2,3-b]pyridin-3-yl)pyrimidin-4-yl)cyclohexane-1,2-diamine] | > 20 µM
O=C(Nc1cccc(C(F)(F)F)c1)N1CCC[C@H](CNc2nc(-c3c[nH]c4ncc(Cl)cc34)ncc2F)C1 [Compound 79, (R)-3-((2-(5-chloro-1H-pyrrolo[2,3-b]pyridin-3-yl)-5-fluoropyrimidin-4-ylamino)methyl)-N-(3-(trifluoromethyl)phenyl)piperidine-1-carboxamide] | 5 to 20 µM
COC(CN1CCC[C@@H](CNc2nc(-c3c[nH]c4ncc(Cl)cc34)ncc2F)C1)OC [Compound 132, (S)-2-(5-chloro-1H-pyrrolo[2,3-b]pyridin-3-yl)-N-((1-(2,2-dimethoxyethyl)piperidin-3-yl)methyl)-5-fluoropyrimidin-4-amine] | > 20 µM
O=C(c1ccc2c(c1)OCO2)N1CCC[C@H](CNc2nc(-c3c[nH]c4ncc(Cl)cc34)ncc2F)C1 [Compound 103, (R)-benzo[d][1,3]dioxol-5-yl(3-((2-(5-chloro-1H-pyrrolo[2,3-b]pyridin-3-yl)-5-fluoropyrimidin-4-ylamino)methyl)piperidin-1-yl)methanone] | < 5 µM
CCOC(=O)CCCC(=O)N1CCC[C@@H](CNc2nc(-c3c[nH]c4ncc(Cl)cc34)ncc2F)C1 [Compound 19, (S)-ethyl 5-(3-((2-(5-chloro-1H-pyrrolo[2,3-b]pyridin-3-yl)-5-fluoropyrimidin-4-ylamino)methyl)piperidin-1-yl)-5-oxopentanoate] | > 20 µM
CCCC(=O)N1CCC[C@@H](CNc2nc(-c3c[nH]c4ncccc34)ncc2F)C1 [Compound 225, (S)-1-(3-((5-fluoro-2-(1H-pyrrolo[2,3-b]pyridin-3-yl)pyrimidin-4-ylamino)methyl)piperidin-1-yl)butan-1-one] | 5 to 20 µM

Same assay, conditions: Influenza A virus, PR/8, MDCK, MDCK cells infected with A/PR/8/34; survival of infected cells; class symbols; read-out: IC50 (mean all)

SMILES | IC50
COC(=O)CCC(=O)N1CCCC(Nc2ccnc(-c3c[nH]c4ncc(Cl)cc34)n2)C1 [Compound 487, (S)-methyl 4-(3-((2-(5-chloro-1H-pyrrolo[2,3-b]pyridin-3-yl)pyrimidin-4-ylamino)piperidin-1-yl)-4-oxobutanoate] | 5 to 20 µM
CC(C)(C)OC(=O)N1CCOCC1CNc1nc(-c2c[nH]c3ncc(Cl)cc23)ncc1F (stereo not drawn) [Compound 515, Tert-Butyl 3-((2-(5-chloro-1H-pyrrolo[2,3-b]pyridin-3-yl)-5-fluoropyrimidin-4-ylamino)methyl)morpholine-4-carboxylate] | > 20 µM
COCC(=O)N1CCC[C@H](CNc2ccnc(-c3c[nH]c4ncc(Cl)cc34)n2)C1 [Compound 491, (R)-1-(3-((2-(5-chloro-1H-pyrrolo[2,3-b]pyridin-3-yl)pyrimidin-4-ylamino)methyl)piperidin-1-yl)-2-methoxyethanone] | < 5 µM
CC(=O)N1CCC[C@H](Nc2ccnc(-c3c[nH]c4ncc(Cl)cc34)n2)C1 [Compound 485] | 5 to 20 µM

Same assay, conditions: Influenza A virus, PR/8, MDCK, mean all; A/PR/8/34 infected MDCK cells, CPE assay; read-out: IC50

SMILES | IC50
CC1(C(=O)N2CC[C@@H](Nc3nc(-c4c[nH]c5ncc(Cl)cc45)ncc3F)C2)COC1 [Compound 473] | 5 to 20 µM
CC(C)S(=O)(=O)N1CC[C@H](Nc2nc(-c3c[nH]c4ncc(Cl)cc34)ncc2F)C1 [Compound 400, (5)-2-(5-chloro-1H-pyrrolo[2,3-b]pyridin-3-yl)-5-fluoro-N-(1-(isopropylsulfonyl)pyrrolidin-3-yl)pyrimidin-4-amine] | 5 to 20 µM
CC(C)NC(=O)N1CCOC(CNc2nc(-c3c[nH]c4ncc(Cl)cc34)ncc2F)C1 (stereo not drawn) [Compound 446, 2-((2-(5-chloro-1H-pyrrolo[2,3-b]pyridin-3-yl)-5-fluoropyrimidin-4-ylamino)methyl)-N-isopropylmorpholine-4-carboxamide] | > 20 µM
O=S(=O)(C1CC1)N1CC[C@H](Nc2nc(-c3c[nH]c4ncc(Cl)cc34)ncc2F)C1 [Compound 401, (S)-2-(5-chloro-1H-pyrrolo[2,3-b]pyridin-3-yl)-N-(1-(cyclopropylsulfonyl)pyrrolidin-3-yl)-5-fluoropyrimidin-4-amine] | 5 to 20 µM
O=C(C1CC1)N1CCOC(CNc2nc(-c3c[nH]c4ncc(Cl)cc34)ncc2F)C1 (stereo not drawn) [Compound 450, (2-((2-(5-chloro-1H-pyrrolo[2,3-b]pyridin-3-yl)-5-fluoropyrimidin-4-ylamino)methyl)morpholino)(cyclopropyl)methanone] | 5 to 20 µM
CCCS(=O)(=O)N[C@@H]1CCCC[C@H]1Nc1nc(-c2c[nH]c3ncccc23)ncc1F [Compound 362, N-[(1R,2R)-2-[[5-fluoro-2-(1H-pyrrolo[2,3-b]pyridin-3-yl)pyrimidin-4-yl]amino]cyclohexyl]propane-1-sulfonamide] | > 20 µM
O=S(=O)(C1CCCC1)N1CC[C@H](Nc2nc(-c3c[nH]c4ncc(Cl)cc34)ncc2F)C1 [Compound 403, (S)-2-(5-chloro-1H-pyrrolo[2,3-b]pyridin-3-yl)-N-(1-(cyclopentylsulfonyl)pyrrolidin-3-yl)-5-fluoropyrimidin-4-amine] | 5 to 20 µM
CCCC(=O)N[C@@H]1CCCC[C@H]1Nc1nc(-c2c[nH]c3ncc(Cl)cc23)ncc1F (relative stereo) [Compound 363, N-[trans-2-[[2-(5-chloro-1H-pyrrolo[2,3-b]pyridin-3-yl)-5-fluoro-pyrimidin-4-yl]amino]cyclohexyl]butanamide] | > 20 µM
CNC(=O)N[C@@H]1CCCC[C@@H]1Nc1nc(-c2c[nH]c3ncc(Cl)cc23)ncc1F (relative stereo) [Compound 430, 1-[cis-2-[[2-(5-chloro-1H-pyrrolo[2,3-b]pyridin-3-yl)-5-fluoro-pyrimidin-4-yl]amino]cyclohexyl]-3-methyl-urea] | < 5 µM
Fc1cnc(-c2c[nH]c3ncc(Cl)cc23)nc1NCC1CN(Cc2ccccc2)CCO1 (stereo not drawn) [Compound 388, N-((4-benzylmorpholin-2-yl)methyl)-2-(5-chloro-1H-pyrrolo[2,3-b]pyridin-3-yl)-5-fluoropyrimidin-4-amine] | > 20 µM
CC(=O)N1CC[C@H](Nc2nc(-c3c[nH]c4ncc(Cl)cc34)ncc2F)C1 [Compound 480] | < 5 µM
COC(=O)N1CC[C@H](Nc2nc(-c3c[nH]c4ncc(Cl)cc34)ncc2F)C1 [Compound 476] | 5 to 20 µM

Same assay, conditions: Influenza A virus, PR/8, MDCK; read-out: IC50 (mean all)

SMILES | IC50
Cc1ccc(OC(=O)N2CCC[C@H](CNc3nc(-c4c[nH]c5ncc(Cl)cc45)ncc3F)C2)cc1 [Compound 71, (R)-p-tolyl 3-((2-(5-chloro-1H-pyrrolo[2,3-b]pyridin-3-yl)-5-fluoropyrimidin-4-ylamino)methyl)piperidine-1-carboxylate] | 5 to 20 µM

Same assay, conditions: mean all; A/PR/8/34 infected MDCK cells, CPE assay; read-out: IC50

SMILES | IC50
CN1CCC(Nc2nc(-c3c[nH]c4ncccc34)ncc2F)C1=O (stereo not drawn) [Compound 376] | 5 to 20 µM
O=C1NCCC1Nc1nc(-c2c[nH]c3ncccc23)ncc1F (stereo not drawn) [Compound 377] | > 20 µM
